This is an account of results in patent US11446287B2, “Compounds and methods for EP300 or CBP modulation and indications therefor” (Opna Immuno-Oncology SA, priority 2019, dated 2022).

As a reminder, the IC50 is the concentration that gives 50% inhibition.

This test deals with T1, Recombinant human CBP containing the bromodomain (CBP-BD (1043-1159)) (Homo sapiens, UniProt Q92793).
T1 construct: Recombinant human CBP bromodomain (CBP-BD (1043-1159)); made in house; host or cells: E. coli BL21-CodonPlus (DE3), modified pET vector
Nature of the test: CBP Alphascreen binding assay. The following applies: read-out: CREBBP (CBP) IC50. The method, boiled down:
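Buffer: 50 mM HEPES pH 7.5, 50 mM NaCl, 0.01% BSA, 0.01% Triton X-100, 2 mM DTT. The signal was normalised to plate controls and fitted with a four-parameter curve to give IC50.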

Structures are written as SMILES.

T1 sequence (Q92793 1081-1197): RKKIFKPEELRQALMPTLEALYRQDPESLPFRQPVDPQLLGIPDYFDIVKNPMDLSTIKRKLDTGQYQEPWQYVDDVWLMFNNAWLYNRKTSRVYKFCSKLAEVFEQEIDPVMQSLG

Take `Cc1noc(C)c1-c1cnc2c(c1)c(-c1ccc(C(=O)O)cc1OCC(F)F)cn2-c1cnc(C2CC2)nc1` [P-0387, 4-(1-(2-cyclopropylpyrimidin-5-yl)-5-(3,5-dimethylisoxazol-4-yl)-1H-pyrrolo[2,3-b]pyridin-3-yl)-3-(2,2-difluoroethoxy)benzoic acid]: the 50% inhibitory concentration (IC50) lay within 0.1 to 1000 nM.
